Data published in US6492416B1, “4,5-diaryl-3(2H)-furanone derivatives as cyclooxygenase-2 inhibitors” (Pacific Corporation, priority 1999, dated 2002).
≈ marks a conversion by molar mass, not a printed value.

How the values were obtained:
COX-2 = biological target: T1, COX-2 (Mus musculus, UniProt Q05769); test: Evaluation of COX-2 activity: PGE2 formation in aspirin-treated, LPS-stimulated mouse peritoneal macrophages; format: cell-based; conditions: for IC50: read-out: IC50, μg/ml COX-2 (converted)
T1 sequence (Q05769 18-604): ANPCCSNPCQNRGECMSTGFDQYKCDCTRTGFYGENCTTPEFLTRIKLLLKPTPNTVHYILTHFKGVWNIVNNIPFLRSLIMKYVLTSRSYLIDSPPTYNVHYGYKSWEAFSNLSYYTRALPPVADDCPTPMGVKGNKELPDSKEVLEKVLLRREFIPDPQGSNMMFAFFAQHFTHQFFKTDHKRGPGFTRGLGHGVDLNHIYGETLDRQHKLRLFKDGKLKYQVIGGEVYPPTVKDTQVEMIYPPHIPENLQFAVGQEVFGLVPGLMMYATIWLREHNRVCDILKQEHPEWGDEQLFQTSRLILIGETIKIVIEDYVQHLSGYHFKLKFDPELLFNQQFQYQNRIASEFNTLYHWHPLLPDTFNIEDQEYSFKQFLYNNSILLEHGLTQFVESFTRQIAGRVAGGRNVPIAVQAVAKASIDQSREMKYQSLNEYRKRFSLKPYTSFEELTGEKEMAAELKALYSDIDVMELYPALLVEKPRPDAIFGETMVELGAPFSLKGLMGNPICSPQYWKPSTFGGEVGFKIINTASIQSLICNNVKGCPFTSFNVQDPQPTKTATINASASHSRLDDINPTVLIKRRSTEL
Protocol: (§1) Evaluation of in vitro COX-2 and COX-1 Activity [J. Pharmacol. Exp. Ther. 166, 96 (1969)]
(§2) The abdominal skin of a C57BL/6 mouse was sanitized with 70% aqueous ethanol, and was removed without damaging the peritoneum. 5 ml of cold phosphate buffer solution (PBS) was then injected into the abdominal cavity. After a minute, the peritoneal fluid containing the macrophages was collected using a syringe and a needle. The collected fluid was centrifuged for 5 min at 1500 rpm to afford pellets of cells. The pellets were then dispersed in the RPMI-1640 culture medium containing 100 units/ml penicillin and 100 μg/ml streptomycin.
The pellets dispersed as above were treated with 500 μM aspirin in order to knock out the activity of the COX-1 enzymes in the cells. The suspension was then diluted with the RPMI-1640 medium to contain 1×10^6 cells/ml. 100 μl of the suspension was added to each well of a 96-well ELISA plate. Then the plate was incubated for 2 hrs at 37° C. under 5% CO2 in order to fix the macrophages onto the plate. The cells, which were not fixed onto the plate were removed by washing with PBS two times. […] The RPMI-1640 medium containing 3% fetal bovine serum albumin was added to each well of the plate, which was followed by stimulation with 10 μg/ml lipopolysaccharide (LPS). […] The LPS-treated suspensions were incubated for 16 hours at 37° C. under 5% CO2 to induce COX-2. Then the culture medium was removed and the macrophages were washed two times with PBS. Then 130 μl RPMI-1640 culture medium was added to each well and the macrophage solutions were incubated at 37° C. for 10 minutes, which was followed by the treatment with 10 μM arachidonic acid and an appropriate amount of compounds of this invention. The plate was incubated for another 10 minutes. The upper solution was collected using a micropipette and was subjected to determination of PGE2 amount in the solution. The amount of PGE2 present in the collected solution was determined either by a known radio-immuno assay or by a known enzyme-immunoassay [Methods in Enzymol. 86, 258 (1982); Methods in Enzymol. 187, 24 (1990)]. The extent of COX-2 inhibition by a compound of the present invention was calculated by assuming, that the amount of PGE2 formed with the treatment of 10 μg/ml arachidonic acid was used is the maximum possible amount of PGE2, and that the amount of PGE2 formed without the treatment of arachidonic acid is the minimum possible amount of PGE2.
(§3) In order to determine IC50 for a compound of this invention, enzymatic activities were measured at multiple concentrations of compounds of this invention around IC50 of the compound. Usually enzymatic activities at 4˜5 concentrations were measured to calculate out IC50 for a compound of this invention.

COX-1 = biological target: T2, COX-1 (Mus musculus, UniProt P22437); test: Evaluation of COX-1 activity: PGE2 formation in mouse peritoneal macrophages without aspirin and LPS treatment; format: cell-based; conditions: for IC50: read-out: IC50, μg/ml COX-1 (converted)
T2 sequence (P22437 27-602): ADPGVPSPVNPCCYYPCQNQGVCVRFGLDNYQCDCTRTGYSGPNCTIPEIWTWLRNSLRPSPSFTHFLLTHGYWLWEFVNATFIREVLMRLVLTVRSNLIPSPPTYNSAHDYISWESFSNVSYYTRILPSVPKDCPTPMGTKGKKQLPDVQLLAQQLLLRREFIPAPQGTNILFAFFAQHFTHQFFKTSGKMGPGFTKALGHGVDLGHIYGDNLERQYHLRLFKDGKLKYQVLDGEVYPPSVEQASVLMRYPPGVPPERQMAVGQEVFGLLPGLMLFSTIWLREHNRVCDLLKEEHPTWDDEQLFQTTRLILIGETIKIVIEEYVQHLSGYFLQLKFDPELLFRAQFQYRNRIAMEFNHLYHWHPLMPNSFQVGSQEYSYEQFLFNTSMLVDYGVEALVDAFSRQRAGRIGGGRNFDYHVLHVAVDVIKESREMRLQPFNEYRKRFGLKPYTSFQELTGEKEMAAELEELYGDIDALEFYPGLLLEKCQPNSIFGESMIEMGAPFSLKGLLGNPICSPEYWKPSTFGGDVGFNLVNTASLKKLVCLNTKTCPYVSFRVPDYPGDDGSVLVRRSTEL
Protocol: as §1, §2
The pellets dispersed as above were treated with 500 μM aspirin in order to knock out the activity of the COX-1 enzymes in the cells. The suspension was then diluted with the RPMI-1640 medium to contain 1×10^6 cells/ml. 100 μl of the suspension was added to each well of a 96-well ELISA plate. Then the plate was incubated for 2 hrs at 37° C. under 5% CO2 in order to fix the macrophages onto the plate. The cells, which were not fixed onto the plate were removed by washing with PBS two times. The purity of macrophages obtained thereby was confirmed by differential counting. The RPMI-1640 medium containing 3% fetal bovine serum albumin was added to each well of the plate, which was followed by stimulation with 10 μg/ml lipopolysaccharide (LPS). Usually 5×10^5 cells/ml were present by this preparation. The LPS-treated suspensions were incubated for 16 hours at 37° C. under 5% CO2 to induce COX-2. Then the culture medium was removed and the macrophages were washed two times with PBS. Then 130 μl RPMI-1640 culture medium was added to each well and the macrophage solutions were incubated at 37° C. for 10 minutes, which was followed by the treatment with 10 μM arachidonic acid and an appropriate amount of compounds of this invention. The plate was incubated for another 10 minutes. The upper solution was collected using a micropipette and was subjected to determination of PGE2 amount in the solution. The amount of PGE2 present in the collected solution was determined either by a known radio-immuno assay or by a known enzyme-immunoassay [Methods in Enzymol. 86, 258 (1982); Methods in Enzymol. 187, 24 (1990)]. The extent of COX-2 inhibition by a compound of the present invention was calculated by assuming, that the amount of PGE2 formed with the treatment of 10 μg/ml arachidonic acid was used is the maximum possible amount of PGE2, and that the amount of PGE2 formed without the treatment of arachidonic acid is the minimum possible amount of PGE2.
In the evaluation of COX-1 inhibitory activity by a compound of the present invention, the same procedures employed for evaluation of COX-2 activity were employed, except omitting the following two steps: 1) the treatment with aspirin for knockout of COX-1 activity and 2) treatment with LPS for induction of COX-2.
as §3

| SMILES | IC50, μg/ml COX-2 (COX-2) | IC50, μg/ml COX-1 (COX-1) | melting point | IC50 (COX-2) | IC50 (COX-1) |
| --- | --- | --- | --- | --- | --- |
| CC(C)c1cccc(C2=C(c3ccc(S(C)(=O)=O)cc3)OC(C)(C)C2=O)c1 [Example 86] | 0.03 µg/mL (≈ 0.078 µM) | 30 µg/mL (≈ 78 µM) | 83 to 84 °C | – | – |
| CC1(C)OC(c2ccc(S(C)(=O)=O)c(F)c2)=C(c2cc(F)cc(F)c2)C1=O [Example 285] | 0.03 µg/mL (≈ 0.0757 µM) | 200 µg/mL (≈ 505 µM) | 163 to 164 °C | – | – |
| CC1(C)OC(c2ccc(S(N)(=O)=O)cc2)=C(c2ccco2)C1=O [Example 160] | 0.057 µg/mL (≈ 0.171 µM) | >10 µg/mL | 156 to 157 °C | – | – |
| COc1ccccc1C1=C(c2ccc(S(C)(=O)=O)cc2)OC(C)(C)C1=O [Example 64] | 0.1 µg/mL (≈ 0.268 µM) | 50 µg/mL (≈ 134 µM) | 109 to 111 °C | – | – |
| CC1(C)OC(c2ccc(S(C)(=O)=O)c(Cl)c2)=C(c2ccc(F)cc2)C1=O [Example 360] | 0.009 µg/mL (≈ 0.0228 µM) | 3 µg/mL (≈ 7.6 µM) | 173 to 174 °C | – | – |
| CC1(C)OC(c2ccc(S(N)(=O)=O)c(F)c2)=C(c2ccccc2Cl)C1=O [Example 304] | 0.05 µg/mL (≈ 0.126 µM) | 50 µg/mL (≈ 126 µM) | 122 to 123 °C | – | – |
| CC1(C)OC(c2ccc(S(C)(=O)=O)c(F)c2)=C(c2ccc(C(F)(F)F)cc2)C1=O [Example 286] | 0.03 µg/mL (≈ 0.07 µM) | 5 µg/mL (≈ 11.7 µM) | 134 to 135 °C | – | – |
| CC1(C)OC(c2ccc(S(N)(=O)=O)cc2)=C(c2ccc(F)c(F)c2)C1=O [Example 138] | 0.0067 µg/mL (≈ 0.0177 µM) | 1.94 µg/mL (≈ 5.11 µM) | 210 to 211 °C | – | – |
| CC1(C)OC(c2ccc(S(N)(=O)=O)cc2)=C(c2ccc(Cl)c(Cl)c2)C1=O [Example 127] | 0.001 µg/mL (≈ 0.00243 µM) | 0.12 µg/mL (≈ 0.291 µM) | 208 to 209 °C | – | – |
| CCC1(C)OC(c2ccc(S(C)(=O)=O)cc2)=C(c2cccc(C(F)(F)F)c2)C1=O (stereo not drawn) [Example 194] | – | – | 45 to 46 °C | 0.118 µM | 47.1 µM |
| CC1(C)OC(c2ccc(S(C)(=O)=O)c(F)c2)=C(c2c(F)cccc2F)C1=O [Example 283] | 0.7 µg/mL (≈ 1.77 µM) | 90 µg/mL (≈ 227 µM) | 113 to 115 °C | – | – |
| CC1(C)OC(c2ccc(S(C)(=O)=O)c(F)c2)=C(c2ccc(F)cc2F)C1=O [Example 281] | 0.1 µg/mL (≈ 0.252 µM) | 10 µg/mL (≈ 25.2 µM) | 183 to 184 °C | – | – |
| CCC1(C)OC(c2ccc(S(N)(=O)=O)cc2)=C(c2ccsc2)C1=O (stereo not drawn) [Example 44, 5-{4-(Aminosulfonyl)phenyl}-2-ethyl-2-methyl-4-(3-thienyl)-3(2H)-furanone] | 0.101 µg/mL (≈ 0.278 µM) | >10 µg/mL | 120 to 121 °C | – | – |
| CC1(C)OC(c2ccc(S(N)(=O)=O)cc2)=C(c2ccc(O)cc2)C1=O [Example 151] | 0.0188 µg/mL (≈ 0.0523 µM) | >10 µg/mL | 164 to 165 °C | – | – |
| CC1(C)OC(c2ccc(S(C)(=O)=O)c(Br)c2)=C(c2ccccc2)C1=O [Example 341, 5-{3-Bromo-4-(methylsulfonyl)phenyl}-2,2-dimethyl-4-phenyl-3(2H)-furanone] | 0.3 µg/mL (≈ 0.712 µM) | 90 µg/mL (≈ 214 µM) | 154 to 155 °C | – | – |
| CCC1(C)OC(c2ccc(S(C)(=O)=O)cc2)=C(c2ccc(Cl)c(C(F)(F)F)c2)C1=O (stereo not drawn) [Example 198] | – | – | 168 to 170 °C | 0.0654 µM | 6.54 µM |
| CC(=O)c1cccc(C2=C(c3ccc(S(C)(=O)=O)cc3)OC(C)(C)C2=O)c1 [Example 5, 4-(3-acetylphenyl)-2,2-dimethyl-5-{4-(methylsulfonyl)phenyl}-3(2H)-furanone] | 0.05 µg/mL (≈ 0.13 µM) | 50 µg/mL (≈ 130 µM) | 189 to 190 °C | – | – |
| CCC1(CC)OC(c2ccc(S(C)(=O)=O)cc2)=C(c2ccc(C(F)(F)F)cc2)C1=O [Example 246] | 0.03 µg/mL (≈ 0.0684 µM) | 3 µg/mL (≈ 6.84 µM) | 121 to 122 °C | – | – |
